Patent US20140107109A1, “AMINO-DIHYDROTHIAZINE AND AMINO-DIOXIDO DIHYDROTHIAZINE COMPOUNDS AS BETA-SECRETASE ANTAGONISTS AND METHODS OF USE” (Amgen Inc., priority 2012, published 2014)

Legend:
[1] = target: Beta Secretase enzyme (BACE1) (Homo sapiens, UniProt P56817); experiment: In vitro enzymatic BACE FRET assay; format: biochemical; settings: average IC50, enzyme assay; read-out: BACE1 FRET assay IC50
Procedure, shortened: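 Readout: dequenched fluorescence (ex 488 nm/[…]) after neutralizing with Tris buffer. Reactions, begun by adding 50 nM quenched peptide substrate spanning the BACE cleavage site, were incubated one hour at pH 4.2 in 0.05 M acetate with 100 uM genapol and 10% final DMSO.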

Cathepsin D (Cat D) = target: T1, Cathepsin D (Cat D) (Homo sapiens, UniProt P07339); experiment: In vitro enzymatic Cathepsin D (Cat D) FRET assay; format: biochemical; settings: read-out: CatD IC50
T1 construct: Recombinant Cat D was expressed in CHO cells; made in house; host or cells: CHO cells
T1 sequence (P07339 65-412, species assumed): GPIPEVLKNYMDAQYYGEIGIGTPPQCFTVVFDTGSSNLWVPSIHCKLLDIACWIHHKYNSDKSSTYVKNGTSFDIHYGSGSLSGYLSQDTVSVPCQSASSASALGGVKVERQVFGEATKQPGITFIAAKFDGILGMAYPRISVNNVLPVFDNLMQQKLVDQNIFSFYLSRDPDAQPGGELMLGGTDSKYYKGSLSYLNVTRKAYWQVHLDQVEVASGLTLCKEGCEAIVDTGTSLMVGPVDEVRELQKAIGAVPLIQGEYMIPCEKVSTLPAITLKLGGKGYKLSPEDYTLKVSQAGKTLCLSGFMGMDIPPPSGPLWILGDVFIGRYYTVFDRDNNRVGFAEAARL
Procedure, shortened: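 FRET read-out: a fluorophore/quencher-labelled peptide substrate is cleaved by 9 nM Cat D (recombinant, CHO-expressed) following a one-hour preincubation with inhibitor dilutions in DMSO. Tris buffer added to neutralize pH ends the reaction before fluorescence measurement.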

[2] = system: Aβ40 in conditioned medium of cells stably expressing Amyloid Precursor Protein (APP); experiment: In vitro BACE cell-based assay (HEK cell assay), Aβ40 sandwich ELISA; settings: Homo sapiens, HEK293; average IC50, cell assay
Procedure, shortened: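 Aβ40 in conditioned medium was quantified by time-resolved fluorescence sandwich ELISA (pAb40 capture 3 h at 4 °C, biotin-6E10 detection 2 h at 4 °C) after 24 h compound exposure of APP-expressing cells. Doses spanned 10 points from 100 μM or 10 μM top, 0.1% DMSO; IC50 was derived from percent of control.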

Chain of Beta Secretase enzyme (BACE1) (P56817 46-501): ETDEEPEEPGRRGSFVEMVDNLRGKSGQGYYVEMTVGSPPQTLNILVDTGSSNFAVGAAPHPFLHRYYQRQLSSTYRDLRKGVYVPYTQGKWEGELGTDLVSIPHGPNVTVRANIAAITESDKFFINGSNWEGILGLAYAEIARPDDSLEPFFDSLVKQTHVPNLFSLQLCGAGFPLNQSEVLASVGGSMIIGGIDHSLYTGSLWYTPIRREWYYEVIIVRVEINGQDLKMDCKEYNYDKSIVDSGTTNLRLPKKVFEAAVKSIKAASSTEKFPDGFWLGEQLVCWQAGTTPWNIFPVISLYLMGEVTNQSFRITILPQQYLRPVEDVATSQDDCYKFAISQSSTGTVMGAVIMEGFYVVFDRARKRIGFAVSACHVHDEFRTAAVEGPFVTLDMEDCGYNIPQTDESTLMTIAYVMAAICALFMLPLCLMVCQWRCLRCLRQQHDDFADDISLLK

`COc1cnc2c(Nc3ccc(F)c([C@]45COC[C@H]4S(=O)(=O)C(C)(C)C(N)=N5)c3)nccc2n1` [Example 248, N-(3-((4aS,7aS)-3-amino-2,2-dimethyl-1,1-dioxido-7,7a-dihydro-2H-furo[3,4-b][1,4]thiazin-4a(5H)-yl)-4-fluorophenyl)-2-methoxypyrido[3,4-b]pyrazin-5-amine] was tested, and the IC50 [1] was 0.00304 µM, the IC50 (Cathepsin D (Cat D)) was 199 µM and the IC50 [2] was 0.0209 µM.
For `CC1(C)C(N)=N[C@@]2(c3cc(Nc4nccc5[nH]c(=O)cnc45)ccc3F)COC[C@H]2S1(=O)=O` [Example 249, 5-((3-((4aS,7aS)-3-amino-2,2-dimethyl-1,1-dioxido-7,7a-dihydro-2H-furo[3,4-b][1,4]thiazin-4a(5H)-yl)-4-fluorophenyl)amino)pyrido[3,4-b]pyrazin-2(1H)-one], the IC50 [1] was 0.00636 µM, the IC50 (Cathepsin D (Cat D)) was 102 µM and the IC50 [2] was 0.153 µM.
In the case of `COc1cnc2c(Nc3ccc(F)c([C@@]4(C)N=C(N)C(C)(C)S(=O)(=O)C45CC5)c3)nccc2n1` [Example 250, N-(3-((8R)-6-amino-5,5,8-trimethyl-4,4-dioxido-4-thia-7-azaspiro[2.5]oct-6-en-8-yl)-4-fluorophenyl)-2-methoxypyrido[3,4-b]pyrazin-5-amine], the IC50 [1] is reported as 0.0212 µM, the IC50 (Cathepsin D (Cat D)) is reported as 113 µM and the IC50 [2] is reported as 0.059 µM.
In the case of `C[C@]1(c2cc(Nc3nccc4cc(C#N)cnc34)ccc2F)N=C(N)C2(CCC2)S(=O)(=O)C1F` (stereo partly drawn) [Example 251, 8-((3-((7R)-9-amino-6-fluoro-7-methyl-5,5-dioxido-5-thia-8-azaspiro[3.5]non-8-en-7-yl)-4-fluorophenyl)amino)-1,7-naphthyridine-3-carbonitrile], the IC50 [1] is reported as 0.00058 µM, the IC50 (Cathepsin D (Cat D)) is reported as 42.8 µM and the IC50 [2] is reported as 0.0135 µM.
`COc1ccc(CSc2ccc(F)c([C@]3(C)CS(=O)(=O)C(C)(C)C(N)=N3)c2)cc1` [Example 252, (5R)-5-(2-fluoro-5-((4-methoxybenzyl)sulfanyl)phenyl)-2,2,5-trimethyl-5,6-dihydro-2H-1,4-thiazin-3-amine 1,1-dioxide] showed an IC50 [1] of 1.21 µM, an IC50 (Cathepsin D (Cat D)) of 35.9 µM and an IC50 [2] of 1.9 µM.
`CC1(C)C(N)=N[C@](C)(c2cc(Oc3nccc4nc(C(F)(F)F)cnc34)ccc2F)CS1(=O)=O` [Example 253, (5R)-5-(2-fluoro-5-((2-(trifluoromethyl)pyrido[3,4-b]pyrazin-5-yl)oxy)phenyl)-2,2,5-trimethyl-5,6-dihydro-2H-1,4-thiazin-3-amine 1,1-dioxide] gave an IC50 [1] of 0.0276 µM, an IC50 (Cathepsin D (Cat D)) of 1410 µM and an IC50 [2] of 1.03 µM.
Work on `CC#CCOc1cnc2c(Nc3ccc(F)c([C@]4(C)CS(=O)(=O)C(C)(C)C(N)=N4)c3)nccc2c1` [Example 254, N-(3-((3R)-5-amino-3,6,6-trimethyl-1,1-dioxido-3,6-dihydro-2H-1,4-thiazin-3-yl)-4-fluorophenyl)-3-(2-butyn-1-yloxy)-1,7-naphthyridin-8-amine] yielded an IC50 [1] of 0.0006 µM, an IC50 (Cathepsin D (Cat D)) of 354 µM and an IC50 [2] of 0.0006 µM.
`CC1(C)C(N)=N[C@](C)(c2cc(Oc3cc(-c4ccc(C(F)(F)F)cc4)ccn3)ccc2F)CS1(=O)=O` [Example 255, (5R)-5-(2-fluoro-5-((4-(4-(trifluoromethyl)phenyl)-2-pyridinyl)oxy)phenyl)-2,2,5-trimethyl-5,6-dihydro-2H-1,4-thiazin-3-amine 1,1-dioxide] showed an IC50 [1] of 0.663 µM, an IC50 (Cathepsin D (Cat D)) of 50.5 µM and an IC50 [2] of 3.99 µM.
In the case of `Cc1cc(-c2cnc(Oc3ccc(F)c([C@]4(C)CS(=O)(=O)C(C)(C)C(N)=N4)c3)c(F)c2)on1` [Example 256, (5R)-5-(2-fluoro-5-((3-fluoro-5-(3-methyl-5-isoxazolyl)-2-pyridinyl)oxy)phenyl)-2,2,5-trimethyl-5,6-dihydro-2H-1,4-thiazin-3-amine 1,1-dioxide], the IC50 [1] is reported as 0.65 µM, the IC50 (Cathepsin D (Cat D)) is reported as 195 µM and the IC50 [2] is reported as 1.82 µM.
With `CC(C)(C)Cc1ccc(Oc2ccc(F)c([C@]3(C)CS(=O)(=O)C(C)(C)C(N)=N3)c2)nc1` [Example 257, (5R)-5-(5-((5-(2,2-dimethylpropyl)-2-pyridinyl)oxy)-2-fluorophenyl)-2,2,5-trimethyl-5,6-dihydro-2H-1,4-thiazin-3-amine 1,1-dioxide] the IC50 [1] was 18.9 µM, the IC50 (Cathepsin D (Cat D)) was 187 µM and the IC50 [2] was 7.79 µM.
With `CC1(C)C(N)=N[C@](C)(c2cc(Oc3ncccc3Cl)ccc2F)CS1(=O)=O` [Example 258, (5R)-5-(5-((3-chloro-2-pyridinyl)oxy)-2-fluorophenyl)-2,2,5-trimethyl-5,6-dihydro-2H-1,4-thiazin-3-amine 1,1-dioxide] the IC50 [1] was 0.0969 µM, the IC50 (Cathepsin D (Cat D)) was 207 µM and the IC50 [2] was 0.121 µM.
`CC1(C)C(N)=N[C@](C)(c2cc(Oc3cc(C(F)(F)F)ccn3)ccc2F)CS1(=O)=O` [Example 259, (5R)-5-(2-fluoro-5-((4-(trifluoromethyl)-2-pyridinyl)oxy)phenyl)-2,2,5-trimethyl-5,6-dihydro-2H-1,4-thiazin-3-amine 1,1-dioxide] gave an IC50 [1] of 0.153 µM, an IC50 (Cathepsin D (Cat D)) of 1050 µM and an IC50 [2] of 0.248 µM.
`CC1(C)C(N)=N[C@](C)(c2cc(Nc3nccc4cc(OCC5CC5)cnc34)ccc2F)CS1(=O)=O` [Example 260, N-(3-((3R)-5-amino-3,6,6-trimethyl-1,1-dioxido-3,6-dihydro-2H-1,4-thiazin-3-yl)-4-fluorophenyl)-3-(cyclopropylmethoxy)-1,7-naphthyridin-8-amine] was tested, and the IC50 [1] was 0.0038 µM, the IC50 (Cathepsin D (Cat D)) was 250 µM and the IC50 [2] was 0.0075 µM.
With `CC1(C)C(N)=N[C@](C)(c2cc(Oc3ccc4ccccc4n3)ccc2F)CS1(=O)=O` [Example 261, (5R)-5-(2-fluoro-5-(2-quinolinyloxy)phenyl)-2,2,5-trimethyl-5,6-dihydro-2H-1,4-thiazin-3-amine 1,1-dioxide] the IC50 [1] was 0.3 µM, the IC50 (Cathepsin D (Cat D)) was 58.3 µM and the IC50 [2] was 0.574 µM.
With `CC1(C)C(N)=N[C@](C)(c2cc(Oc3ncc(F)c(C(F)(F)F)c3F)ccc2F)CS1(=O)=O` [Example 262, (5R)-5-(5-((3,5-difluoro-4-(trifluoromethyl)-2-pyridinyl)oxy)-2-fluorophenyl)-2,2,5-trimethyl-5,6-dihydro-2H-1,4-thiazin-3-amine 1,1-dioxide] the IC50 [1] was 15.5 µM, the IC50 (Cathepsin D (Cat D)) was 68.1 µM and the IC50 [2] was > 15.6 µM.
`Cc1cccnc1Oc1ccc(F)c([C@]2(C)CS(=O)(=O)C(C)(C)C(N)=N2)c1` [Example 263, (5R)-5-(2-fluoro-5-((3-methyl-2-pyridinyl)oxy)phenyl)-2,2,5-trimethyl-5,6-dihydro-2H-1,4-thiazin-3-amine 1,1-dioxide] showed an IC50 [1] of 0.65 µM, an IC50 (Cathepsin D (Cat D)) of 555 µM and an IC50 [2] of 0.624 µM.
For `Cc1ccnc(Oc2ccc(F)c([C@]3(C)CS(=O)(=O)C(C)(C)C(N)=N3)c2)c1` [Example 264, (5R)-5-(2-fluoro-5-((4-methyl-2-pyridinyl)oxy)phenyl)-2,2,5-trimethyl-5,6-dihydro-2H-1,4-thiazin-3-amine 1,1-dioxide], the IC50 [1] was 0.18 µM, the IC50 (Cathepsin D (Cat D)) was 878 µM and the IC50 [2] was 0.126 µM.
Molecule `Cc1ccc(Oc2ccc(F)c([C@]3(C)CS(=O)(=O)C(C)(C)C(N)=N3)c2)nc1` [Example 265, (5R)-5-(2-fluoro-5-((5-methyl-2-pyridinyl)oxy)phenyl)-2,2,5-trimethyl-5,6-dihydro-2H-1,4-thiazin-3-amine 1,1-dioxide] has an IC50 [1] of 2.26 µM, an IC50 (Cathepsin D (Cat D)) of 373 µM and an IC50 [2] of 0.804 µM.
For `Cc1cccc(Oc2ccc(F)c([C@]3(C)CS(=O)(=O)C(C)(C)C(N)=N3)c2)n1` [Example 266, (5R)-5-(2-fluoro-5-((6-methyl-2-pyridinyl)oxy)phenyl)-2,2,5-trimethyl-5,6-dihydro-2H-1,4-thiazin-3-amine 1,1-dioxide], the IC50 [1] was 0.413 µM, the IC50 (Cathepsin D (Cat D)) was 407 µM and the IC50 [2] was 0.427 µM.
Work on `CC1(C)C(N)=N[C@](C)(c2cc(Oc3ncc(C(F)(F)F)cc3Cl)ccc2F)CS1(=O)=O` [Example 267, (5R)-5-(5-((3-chloro-5-(trifluoromethyl)-2-pyridinyl)oxy)-2-fluorophenyl)-2,2,5-trimethyl-5,6-dihydro-2H-1,4-thiazin-3-amine 1,1-dioxide] yielded an IC50 [1] of 0.603 µM, an IC50 (Cathepsin D (Cat D)) of 221 µM and an IC50 [2] of 0.874 µM.
Work on `CC1(C)C(N)=N[C@](C)(c2cc(Oc3cc(N)nc(N)n3)ccc2F)CS1(=O)=O` [Example 268, 6-(3-((3R)-5-amino-3,6,6-trimethyl-1,1-dioxido-3,6-dihydro-2H-1,4-thiazin-3-yl)-4-fluorophenoxy)-2,4-pyrimidinediamine] yielded an IC50 [1] of 0.318 µM, an IC50 (Cathepsin D (Cat D)) of 920 µM and an IC50 [2] of 0.305 µM.
With `CC1(C)C(N)=N[C@](C)(c2cc(Oc3cccc(C(F)(F)F)n3)ccc2F)CS1(=O)=O` [Example 269, (5R)-5-(2-fluoro-5-((6-(trifluoromethyl)-2-pyridinyl)oxy)phenyl)-2,2,5-trimethyl-5,6-dihydro-2H-1,4-thiazin-3-amine 1,1-dioxide] the IC50 [1] was 0.248 µM, the IC50 (Cathepsin D (Cat D)) was 132 µM and the IC50 [2] was 0.574 µM.
`CC1(C)C(N)=N[C@](C)(c2cc(Oc3cnccn3)ccc2F)CS1(=O)=O` [Example 270, (5R)-5-(2-fluoro-5-(2-pyrazinyloxy)phenyl)-2,2,5-trimethyl-5,6-dihydro-2H-1,4-thiazin-3-amine 1,1-dioxide] was tested, and the IC50 [1] was 0.0935 µM, the IC50 (Cathepsin D (Cat D)) was 222 µM and the IC50 [2] was 0.0511 µM.
With `Cc1cc(C#N)cnc1Oc1ccc(F)c([C@]2(C)CS(=O)(=O)C(C)(C)C(N)=N2)c1` [Example 271, 6-(3-((3R)-5-amino-3,6,6-trimethyl-1,1-dioxido-3,6-dihydro-2H-1,4-thiazin-3-yl)-4-fluorophenoxy)-5-methyl-3-pyridinecarbonitrile] the IC50 [1] was 0.549 µM, the IC50 (Cathepsin D (Cat D)) was 540 µM and the IC50 [2] was 0.474 µM.
